Source: patent US20140288052A1, “SUBSTITUTED BICYCLIC AZA-HETEROCYCLES AND ANALOGUES AS SIRTUIN MODULATORS” (GlaxoSmithKline, LLC, priority 2011, published 2014)

Key:
SIRT1 [1] = biological target: T1, SIRT1 (Homo sapiens, UniProt Q96EB6); experiment: TAMRA based mass spectrometry assay of SIRT1 deacetylase activation; type: biochemical; conditions: TAMRA peptide substrate; for TAMRA EC1.5 (μM): concentration that results in 150% activation of SIRT1; for TAMRA % Fold Act: percent maximum fold activation relative to control (100%)
T1 sequence (Q96EB6 1-747): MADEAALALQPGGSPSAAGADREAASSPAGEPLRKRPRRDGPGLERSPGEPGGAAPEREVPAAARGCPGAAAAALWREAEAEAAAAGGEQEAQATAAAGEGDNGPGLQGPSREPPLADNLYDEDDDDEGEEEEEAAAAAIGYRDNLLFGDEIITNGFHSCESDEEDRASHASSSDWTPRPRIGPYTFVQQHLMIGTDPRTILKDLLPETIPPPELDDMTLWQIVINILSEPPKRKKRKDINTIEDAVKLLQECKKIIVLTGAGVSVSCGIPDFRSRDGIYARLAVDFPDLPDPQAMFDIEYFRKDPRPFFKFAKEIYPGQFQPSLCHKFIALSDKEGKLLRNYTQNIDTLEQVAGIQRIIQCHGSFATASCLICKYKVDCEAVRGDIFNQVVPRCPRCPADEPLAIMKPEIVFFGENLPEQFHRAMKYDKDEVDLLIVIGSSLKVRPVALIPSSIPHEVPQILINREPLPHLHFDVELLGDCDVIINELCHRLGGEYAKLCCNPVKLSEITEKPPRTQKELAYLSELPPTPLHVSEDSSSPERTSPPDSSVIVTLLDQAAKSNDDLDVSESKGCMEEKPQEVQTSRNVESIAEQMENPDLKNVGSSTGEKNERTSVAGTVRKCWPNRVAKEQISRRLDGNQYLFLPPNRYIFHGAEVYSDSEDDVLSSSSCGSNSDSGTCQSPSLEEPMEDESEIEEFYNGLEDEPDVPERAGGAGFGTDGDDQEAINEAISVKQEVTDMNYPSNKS
Summary of the method: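 E. coli-expressed N-terminal His-tagged human SIRT1 (10 nM) was incubated 25 min at 25 °C, pH 8 Tris-acetate buffer, with 0.5 μM TAMRA-labelled p53-derived acetyl-peptide, 120 μM NAD+ and varying compound; formic acid stop, mass-spec quantitation of deacetylated product vs DMSO controls. EC1.5 = concentration giving 150% activation.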

SIRT1 [2] = biological target: T1, SIRT1; experiment: Trp mass spectrometry assay of SIRT1 deacetylase activation; type: biochemical; conditions: Trp peptide substrate; for TRP EC1.5 (μM): concentration that results in 150% activation of SIRT1; for TRP % Fold Act: percent maximum fold activation relative to control (100%)
Summary of the method: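 His-tagged human SIRT1 (E. coli-expressed, 10 nM) was incubated with 0.5 μM Ac-RHKK(Ac)W-NH2 peptide and 120 μM βNAD+ for 25 min at 25 °C in HEPES pH 7.5, 1500 mM NaCl, with varying compound; formic acid quench. OAADPR or deacetylated peptide was quantified by mass spectrometry against DMSO control. EC1.5 (150% activation) and percent maximum activation were derived.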

Row | SMILES | TAMRA EC1.5 (μM) (SIRT1 [1]) | TAMRA % Fold Act (SIRT1 [1]) | TRP EC1.5 (μM) (SIRT1 [2]) | TRP % Fold Act (SIRT1 [2])
1 | O=C(Nc1ccncc1)c1cc(N2CCOCC2)nn2cc(-c3ccccc3C(F)(F)F)nc12 [Compound 46] | A (EC1.5<1 μM) | A (Fold activation≧350%) | C (EC1.5>25 μM) | B (Fold Activation<350%)
2 | Cc1cnc(NC(=O)c2cc(N3CCOCC3)nn3cc(-c4ccccc4C(F)(F)F)nc23)s1 [Compound 43] | A (EC1.5<1 μM) | B (Fold Activation<350%) | C (EC1.5>25 μM) | B (Fold Activation<350%)
3 | Cc1cnc(NC(=O)c2ccnn3cc(-c4ccccc4C(F)(F)F)nc23)s1 [Compound 14] | A (EC1.5<1 μM) | B (Fold Activation<350%) | C (EC1.5>25 μM) | B (Fold Activation<350%)
4 | O=C(Nc1cccc(N2CCOCC2)n1)c1ccnc2cc(-c3cccc(C(F)(F)F)c3)nn12 [Compound 90] | C (EC1.5>25 μM) | B (Fold Activation<350%) | C (EC1.5>25 μM) | B (Fold Activation<350%)
5 | O=C(Nc1nccs1)c1ccnn2cc(-c3cccc(Cl)c3)nc12 [Compound 21] | C (EC1.5>25 μM) | B (Fold Activation<350%) | C (EC1.5>25 μM) | B (Fold Activation<350%)
6 | O=C(Nc1nccs1)c1ccnn2cc(-c3ccccc3C(F)(F)F)nc12 [Compound 13] | A (EC1.5<1 μM) | B (Fold Activation<350%) | A (EC1.5<1 μM) | B (Fold Activation<350%)
7 | O=C(Nc1nccs1)c1ccnn2cc(-c3cccc(C(F)(F)F)c3)nc12 [Compound 17] | C (EC1.5>25 μM) | B (Fold Activation<350%) | C (EC1.5>25 μM) | B (Fold Activation<350%)
8 | O=C(Nc1ccnc2cc(-c3cccc(C(F)(F)F)c3)nn12)c1cscn1 [Compound 66] | C (EC1.5>25 μM) | B (Fold Activation<350%) | C (EC1.5>25 μM) | B (Fold Activation<350%)
9 | O=C(Nc1ccnc2cc(-c3cccc(C(F)(F)F)c3)nn12)c1cccc(OCC(O)CO)n1 (stereo not drawn) [Compound 74] | B (EC1.5 1−25 μM) | B (Fold Activation<350%) | B (EC1.5 1−25 μM) | B (Fold Activation<350%)
10 | O=C(Nc1ccccn1)c1cc(N2CCOCC2)nn2cc(-c3ccccc3Cl)nc12 [Compound 36] | C (EC1.5>25 μM) | B (Fold Activation<350%) | C (EC1.5>25 μM) | B (Fold Activation<350%)
11 | O=C(Nc1ccncc1)c1ccnc2cc(-c3cccc(C(F)(F)F)c3)nn12 [Compound 86] | C (EC1.5>25 μM) | B (Fold Activation<350%) | C (EC1.5>25 μM) | B (Fold Activation<350%)
12 | O=C(Nc1cccc(N2CCOCC2)n1)c1ccnn2cc(-c3ccccc3C(F)(F)F)nc12 [Compound 16] | A (EC1.5<1 μM) | A (Fold activation≧350%) | C (EC1.5>25 μM) | B (Fold Activation<350%)
13 | Cc1cnc(NC(=O)c2ccnn3cc(-c4ccccc4F)nc23)s1 [Compound 4] | C (EC1.5>25 μM) | B (Fold Activation<350%) | C (EC1.5>25 μM) | B (Fold Activation<350%)
14 | Cc1cnc(NC(=O)c2ccnn3cc(-c4cccc(C(F)(F)F)c4)nc23)s1 [Compound 18] | C (EC1.5>25 μM) | B (Fold Activation<350%) | C (EC1.5>25 μM) | B (Fold Activation<350%)

The remaining lines, values ahead:

Row | TAMRA EC1.5 (μM) (SIRT1 [1]) | TAMRA % Fold Act (SIRT1 [1]) | TRP EC1.5 (μM) (SIRT1 [2]) | TRP % Fold Act (SIRT1 [2]) | SMILES
15 | A (EC1.5<1 μM) | A (Fold activation≧350%) | A (EC1.5<1 μM) | A (Fold activation≧350%) | O=C(Nc1ccnc2cc(-c3ccccc3C(F)(F)F)nn12)c1cccc(OCC(O)CO)n1 (stereo not drawn) [Compound 65]
16 | C (EC1.5>25 μM) | B (Fold Activation<350%) | C (EC1.5>25 μM) | B (Fold Activation<350%) | O=C(Nc1ccnc2cc(-c3ccccc3C(F)(F)F)nn12)c1cncnc1 [Compound 104]
17 | B (EC1.5 1−25 μM) | B (Fold Activation<350%) | C (EC1.5>25 μM) | B (Fold Activation<350%) | O=C(Nc1ccnc2cc(-c3ccccc3C(F)(F)F)nn12)c1ccncn1 [Compound 62]
18 | B (EC1.5 1−25 μM) | A (Fold activation≧350%) | B (EC1.5 1−25 μM) | B (Fold Activation<350%) | O=C(Nc1ncccn1)c1ccnc2cc(-c3ccccc3C(F)(F)F)nn12 [Compound 100]
19 | A (EC1.5<1 μM) | A (Fold activation≧350%) | A (EC1.5<1 μM) | A (Fold activation≧350%) | O=C(Nc1ccnc2cc(-c3ccccc3C(F)(F)F)nn12)c1cccc(OC[C@@H](O)CO)n1 [Compound 115]
20 | B (EC1.5 1−25 μM) | B (Fold Activation<350%) | C (EC1.5>25 μM) | B (Fold Activation<350%) | O=C(Nc1ccnc2cc(-c3ccccc3C(F)(F)F)nn12)c1nccs1 [Compound 93]
21 | B (EC1.5 1−25 μM) | B (Fold Activation<350%) | C (EC1.5>25 μM) | B (Fold Activation<350%) | Cc1cnc(NC(=O)c2ccnc3cc(-c4ccccc4C(F)(F)F)nn23)s1 [Compound 80]
22 | A (EC1.5<1 μM) | A (Fold activation≧350%) | C (EC1.5>25 μM) | B (Fold Activation<350%) | Cc1cc(C)nc(C(=O)Nc2ccnc3cc(-c4ccccc4C(F)(F)F)nn23)c1 [Compound 106]
23 | B (EC1.5 1−25 μM) | B (Fold Activation<350%) | C (EC1.5>25 μM) | B (Fold Activation<350%) | O=C(Nc1ccnc2cc(-c3cccc(C(F)(F)F)c3)nn12)c1ncccn1 [Compound 71]
24 | C (EC1.5>25 μM) | B (Fold Activation<350%) | C (EC1.5>25 μM) | B (Fold Activation<350%) | O=C(Nc1cnccn1)c1ccnc2cc(-c3ccccc3C(F)(F)F)nn12 [Compound 99]
25 | A (EC1.5<1 μM) | A (Fold activation≧350%) | C (EC1.5>25 μM) | B (Fold Activation<350%) | O=C(Nc1ccnc2cc(-c3ccccc3C(F)(F)F)nn12)c1ncc(F)cc1F [Compound 116]
26 | A (EC1.5<1 μM) | A (Fold activation≧350%) | C (EC1.5>25 μM) | B (Fold Activation<350%) | Cc1cccnc1C(=O)Nc1ccnc2cc(-c3ccccc3C(F)(F)F)nn12 [Compound 112]
27 | A (EC1.5<1 μM) | A (Fold activation≧350%) | C (EC1.5>25 μM) | B (Fold Activation<350%) | O=C(Nc1ccnc2cc(-c3ccccc3C(F)(F)F)nn12)c1cnccn1 [Compound 61]
28 | A (EC1.5<1 μM) | A (Fold activation≧350%) | C (EC1.5>25 μM) | B (Fold Activation<350%) | Cc1nc(C(=O)Nc2ccnc3cc(-c4ccccc4C(F)(F)F)nn23)cs1 [Compound 56]
29 | A (EC1.5<1 μM) | A (Fold activation≧350%) | B (EC1.5 1−25 μM) | B (Fold Activation<350%) | O=C(Nc1ccnc2cc(-c3ccccc3C(F)(F)F)nn12)c1ccccn1 [Compound 59]
30 | A (EC1.5<1 μM) | A (Fold activation≧350%) | B (EC1.5 1−25 μM) | B (Fold Activation<350%) | O=C(Nc1ccnc2cc(-c3ccccc3C(F)(F)F)nn12)c1ncccc1F [Compound 113]
